Starred links: 1 amine or outer side, 2 acyl side, 3 side chain; linkers in the order of their positions; H or OH if unused. Non-standard residues stand in square brackets, D forms with d. Residues, ends and D or L forms follow the SMILES beside them. Groups on a side chain read outwards from the residue. No end group written: not given here. *: point of attachment. C18 diacid = O=C(O)CCCCCCCCCCCCCCCCC(=O)*; γGlu = O=C(O)[C@H](CCC(=O)[*:2])N[*:1]; Lauroyl = CCCCCCCCCCCC(=O)*; AEEA = NCCOCCOCC(=O)O
Columns and labels:
[1] = Body weight of rats after spinal cord injury (SCI) surgery; type: in vivo; settings: 1 mg/kg subcutaneous daily, female SD rats, FIG. 2
Procedure: (§1) Female SD rats (250-270 g) were randomly grouped after being weighed. After the dorsal T10 segment lamina of the rats was removed, spinal cord contusion was performed on rats in each spinal cord injury (SCI) surgery group, while for rats in the sham operation (sham) group, only the T10 segment lamina was removed without contusion. Rats with a BBB locomotor score > 1 on day 1 after spinal cord injury surgery were excluded, and the remaining rats were randomly grouped and subcutaneously injected daily with: equal volume of physiological saline (vehicle control), PW5 (1 mg/kg), and PW337 (1, 2, 4 mg/kg); rats in the sham operation group were not injected. The body weight of the rats was measured weekly after spinal cord injury surgery, and BBB scoring and open field activity tests were performed.

[2] = system: rats with chronic spinal cord injury; assay: BBB locomotor scoring in rats with chronic spinal cord injury; type: in vivo; settings: 2 mg/kg subcutaneous daily; days 1-14 after surgery (acute and subacute phase), FIG. 4
Procedure: as §1, with “(2” for “(1”, “(2” for “(1, 2, 4”, “BBB scoring” for “The body weight of the rats”, “performed” for “measured”, “surgery.” for “surgery, and BBB scoring and open field activity tests were performed.”

[3] = Determination of the half-life of polypeptides in rats (plasma LC-MS/MS); type: in vivo; parameters: AUClast (0-120 min): unit not given here; settings: male SD rats, intravenous 4 mg/kg; for 30 min blood drug concentration / level at 0.5 h: 30 min after injection; for half-life / level at 0.5 h: rat, plasma; for level at 0.5 h: read-out: 30 min blood drug concentration
Procedure: Plasma sample collection method: 2 male SD rats (280-300 g) were intravenously injected with PW5, PW6, PW182, and PW337 respectively, the pure peptide dose was 4 mg/kg, and the dosing volume was 2 mL/kg. At 0.5 min, 2 min, 5 min, 10 min, 15 min, 30 min, 60 min, and 120 min after intravenous injection of the drug via the tail vein, blood (400 µL/time) was collected through an indwelling jugular vein catheter into anticoagulant tubes containing EDTA-K2, and 100x protease inhibitor (1:50, v:v; Roche, 11873580001) was added. Whole blood samples were placed on ice and centrifuged (3200 g, 4°C, 10 min) within 1 hour after blood collection. Plasma was taken into a pre-cooled centrifuge tube, protease inhibitor (1:50, v:v) was added again, mixed homogeneously, and stored at -80°C.
Plasma sample processing method: Plasma samples were pipetted into a 96-well plate (50 µL/well), pure methanol (300 µL/well) was added, and mixed by vortexing (1500 rpm, 10 min). Centrifuged (4800 g, 4°C, 10 min), the supernatant was taken into a new 96-well plate (100 µL/well), a 20% aqueous methanol solution containing 0.2% formic acid (100 µL/well) was added, and mixed by vortexing (1500 rpm, 3 min). 10.0 µL was injected for LC-MS/MS analysis to obtain the drug concentration in the samples. Instrument model: (Waters TQ-XS) Chromatographic column: SHIMADZU Shim-Pack Scepter Claris C4-300 (2.1×50 mm, 1.9 µm) Detection results: Table 3. Half-life, blood drug concentration, and AUC data of the conjugates

SH-SY5Y cells = assay: Axonal growth of RA-differentiated SH-SY5Y cells on proteoglycan (ACAN) coating; type: cell-based, human; settings: PW polypeptide 2.5 µM, 72 h, proteoglycan (ACAN)-coated plate, FIG. 1
Procedure: Therefore, RA-induced differentiated SH-SY5Y can be used to simulate neuronal axonal growth in vitro and to test the effects of PW polypeptides on axonal growth.
Preparation of culture medium for SH-SY5Y: 1) DMEM/F12 + 10% FBS + 1 × penicillin-streptomycin + 1 mM sodium pyruvate; 2) DMEM/F12 + 1% FBS + 1 × penicillin-streptomycin + 1 mM sodium pyruvate. Preparation of 50 mM retinoic acid stock solution: 15.02 mg of retinoic acid was weighed and dissolved in 1 mL of dimethyl sulfoxide (DMSO), aliquoted, and frozen at -80°C. Proteoglycan (ACAN/CSPG1) is a type of chondroitin sulfate proteoglycan (CSPG). Preparation of 1 mg/mL proteoglycan stock solution: 1 mg of ACAN solid was dissolved in 1 mL of distilled water, aliquoted, and frozen at -80°C. Preparation of PW polypeptide solution for cells (1 mM): the corresponding mass of polypeptide powder was weighed, dissolved in PBS and filtered through a 0.2 µm filter membrane, aliquoted, and frozen at -20°C.
The 1 mg/mL proteoglycan was diluted to 250 µg/mL with distilled water to coat a 24-well cell culture plate: each well was coated with 3 droplets of ACAN, 2 µL per droplet. Using the culture medium containing 10% FBS, SH-SY5Y cells were seeded in the proteoglycan-coated 24-well plate (20,000 cells/well) and incubated (37°C, 5% CO2) for 20 h. The medium was replaced with a culture medium containing 1% FBS, and PW polypeptide (2.5 µM) or an equal volume of PBS solution was added. After incubation for 72 h, the cells were fixed with 4% paraformaldehyde (room temperature, 30 min), and cell morphology was photographed and recorded using a 10× optical microscope. 20-30 cells were randomly selected under each field of view, and axonal length was measured using Image J-SNT.
Data analysis: All measured axonal lengths within each proteoglycan-coated range were averaged to serve as one data point. One-way analysis of variance and Tukey's test were used to compare the differences between groups. P<0.05 was considered as a significant difference.

Compound	body weight recovery compared with rats in the spinal cord injury (SCI) group [1]	BBB scores, differences among SCI, PW5 and PW337 groups [2]	AUClast (0-120 min) [3]	30 min blood drug concentration [3] [ng/mL]	half-life [3] [min]	level at 0.5 h [3] [µg/mL]	effect of promoting axonal growth compared with the scrambled polypeptide (Scr, negative control) (SH-SY5Y cells)	promoting effect on axonal growth compared with PW6 (SH-SY5Y cells)
CC[C@H](C)[C@H](NC(=O)[C@H](CO)NC(=O)[C@H](CCC(=O)O)NC(=O)[C@H](Cc1ccc(O)cc1)NC(=O)[C@H](CCC(=O)O)NC(=O)[C@H](CCC(N)=O)NC(=O)[C@H](CO)NC(=O)[C@H](CC(C)C)NC(=O)[C@H](CCCCN)NC(=O)[C@H](CC(C)C)NC(=O)[C@H](CO)NC(=O)[C@H](CC(=O)O)NC(=O)[C@H](CC(N)=O)NC(=O)[C@H](C)NC(=O)[C@H](CCCCN)NC(=O)[C@H](CC(C)C)NC(=O)[C@H](CCCNC(=N)N)NC(=O)[C@H](CCC(=O)O)NC(=O)[C@H](CCSC)NC(=O)[C@H](Cc1c[nH]cn1)NC(=O)[C@H](CCC(=O)O)NC(=O)[C@H](C)NC(=O)[C@H](CCSC)NC(=O)[C@H](CC(=O)O)NC(=O)[C@H](CS)NC(=O)[C@H](CCCNC(=N)N)NC(=O)[C@H](CCCNC(=N)N)NC(=O)[C@H](CCCNC(=N)N)NC(=O)[C@H](CCC(N)=O)NC(=O)[C@H](CCCNC(=N)N)NC(=O)[C@H](CCCNC(=N)N)NC(=O)[C@H](CCCCN)NC(=O)[C@H](CCCCN)NC(=O)[C@H](CCCNC(=N)N)NC(=O)CN)C(N)=O [PW-5, reference compound]	significantly accelerated on days 27-57 after surgery	no significant differences	928	0	4.3			
CC[C@H](C)[C@H](NC(=O)[C@H](CO)NC(=O)[C@H](CCC(=O)O)NC(=O)[C@H](Cc1ccc(O)cc1)NC(=O)[C@H](CCC(=O)O)NC(=O)[C@H](CCC(N)=O)NC(=O)[C@H](CO)NC(=O)[C@H](CC(C)C)NC(=O)[C@H](CCCCNC(=O)COCCOCCNC(=O)COCCOCCNC(=O)CC[C@H](NC(=O)CCCCCCCCCCCCCCCCC(=O)O)C(=O)O)NC(=O)[C@H](CC(C)C)NC(=O)[C@H](CO)NC(=O)[C@H](CC(=O)O)NC(=O)[C@H](CC(N)=O)NC(=O)[C@H](C)NC(=O)[C@H](CCCCN)NC(=O)[C@H](CC(C)C)NC(=O)[C@H](CCCNC(=N)N)NC(=O)[C@H](CCC(=O)O)NC(=O)[C@@H](NC(=O)[C@H](Cc1c[nH]cn1)NC(=O)[C@H](CCC(=O)O)NC(=O)[C@H](C)NC(=O)[C@H](CCSC)NC(=O)[C@H](CC(=O)O)NC(=O)[C@H](CCCNC(=N)N)NC(=O)[C@H](CCCNC(=N)N)NC(=O)[C@H](CCCNC(=N)N)NC(=O)[C@H](CCC(N)=O)NC(=O)[C@H](CCCNC(=N)N)NC(=O)[C@H](CCCNC(=N)N)NC(=O)[C@H](CCCCN)NC(=O)[C@H](CCCCN)NC(=O)[C@H](CCCNC(=N)N)NC(=O)CN)[C@@H](C)O)C(N)=O [PW-182] (H-GRKKRRQRRRDMAEHTERLKANDSLK([AEEA-AEEA-γGlu-C18 diacid])LSQEYESI-NH2)			4927113		61.6	64.4		
CC[C@H](C)[C@H](NC(=O)[C@H](CO)NC(=O)[C@H](CCC(=O)O)NC(=O)[C@H](Cc1ccc(O)cc1)NC(=O)[C@H](CCC(=O)O)NC(=O)[C@H](CCC(N)=O)NC(=O)[C@H](CO)NC(=O)[C@H](CC(C)C)NC(=O)[C@H](CCCCNC(=O)COCCOCCNC(=O)COCCOCCNC(=O)CC[C@H](NC(=O)CCCCCCCCCCCCCCCCC(=O)O)C(=O)O)NC(=O)[C@H](CC(C)C)NC(=O)[C@H](CO)NC(=O)[C@H](CC(=O)O)NC(=O)[C@H](CC(N)=O)NC(=O)[C@H](C)NC(=O)[C@H](CCCCN)NC(=O)[C@H](CC(C)C)NC(=O)[C@H](CCCNC(=N)N)NC(=O)[C@H](CCC(=O)O)NC(=O)[C@H](CCSC)NC(=O)[C@H](Cc1c[nH]cn1)NC(=O)[C@H](CCC(=O)O)NC(=O)[C@H](C)NC(=O)[C@H](CCSC)NC(=O)[C@H](CC(=O)O)NC(=O)[C@H](CCCNC(=N)N)NC(=O)[C@H](CCCNC(=N)N)NC(=O)[C@H](CCCNC(=N)N)NC(=O)[C@H](CCC(N)=O)NC(=O)[C@H](CCCNC(=N)N)NC(=O)[C@H](CCCNC(=N)N)NC(=O)[C@H](CCCCN)NC(=O)[C@H](CCCCN)NC(=O)[C@H](CCCNC(=N)N)NC(=O)CN)C(N)=O [PW-337]			4157725		95.6	56.8		
GRKKRRQRRRCDMAEHTERLKANDSLKLSQEYESI-NH2 [PW-6, reference compound]			1787	0	2.2		significant effect of promoting axonal growth	
PW-261: polypeptide derivative, SEQ ID NO: 51 (G[dR]KKR[dR]Q[dR]RRDMAEHTERLK([AEEA-γGlu-Lauroyl])ANDSLKLSQEYESI-NH2; N-terminus assumed; SMILES CCCCCCCCCCCC(=O)N[C@@H](CCC(=O)NCCOCCOCC(=O)NCCCC[C@H](NC(=O)[C@H](CC(C)C)NC(=O)[C@H](CCCNC(=N)N)NC(=O)[C@H](CCC(=O)O)NC(=O)[C@@H](NC(=O)[C@H](Cc1c[nH]cn1)NC(=O)[C@H](CCC(=O)O)NC(=O)[C@H](C)NC(=O)[C@H](CCSC)NC(=O)[C@H](CC(=O)O)NC(=O)[C@H](CCCNC(=N)N)NC(=O)[C@H](CCCNC(=N)N)NC(=O)[C@@H](CCCNC(=N)N)NC(=O)[C@H](CCC(N)=O)NC(=O)[C@@H](CCCNC(=N)N)NC(=O)[C@H](CCCNC(=N)N)NC(=O)[C@H](CCCCN)NC(=O)[C@H](CCCCN)NC(=O)[C@@H](CCCNC(=N)N)NC(=O)CN)[C@@H](C)O)C(=O)N[C@@H](C)C(=O)N[C@@H](CC(N)=O)C(=O)N[C@@H](CC(=O)O)C(=O)N[C@@H](CO)C(=O)N[C@@H](CC(C)C)C(=O)N[C@@H](CCCCN)C(=O)N[C@@H](CC(C)C)C(=O)N[C@@H](CO)C(=O)N[C@@H](CCC(N)=O)C(=O)N[C@@H](CCC(=O)O)C(=O)N[C@@H](Cc1ccc(O)cc1)C(=O)N[C@@H](CCC(=O)O)C(=O)N[C@@H](CO)C(=O)N[C@H](C(N)=O)[C@@H](C)CC)C(=O)O)							significant effect of promoting axonal growth	no significant difference
